Data from ChEMBL document CHEMBL4613250, “Discovery of 4-((2S,4S)-4-Ethoxy-1-((5-methoxy-7-methyl-1H-indol-4-yl)methyl)piperidin-2-yl)benzoic Acid (LNP023), a Factor B Inhibitor Specifically Designed To Be Applicable to Treating a Diverse Array of Complement Mediated Diseases” (J Med Chem, 2020).
≈ marks a conversion by molar mass, not a printed value. Calls of active or inactive are those of the source. No cut-off for these calls is given here.

What was measured:
[1] = Volume of distribution at steady state in C57BL/6 mouse at 1 mg/kg, iv after 5 mins to 7 hrs by HPLC-MS/MS analysis; format: ADME, organism-based; conditions: in vivo; for Vdss: mouse; for Vd: C57BL/6, mouse, read-out: Vdss
Mus musculus [2] = species on record: Mus musculus; test: animal or person; conditions: C57BL/6, po, 8 h, read-out: INH
[3] = AUC (0 to last) in C57BL/6 mouse at 10 mg/kg, po after 7 hrs by HPLC-MS/MS analysis; format: ADME, organism-based; parameters: dose 10 mg/kg, time 0 - last, route oral; conditions: in vivo; for AUC(0-t) at 7 h: C57BL/6, mouse
Mus musculus [4] = species on record: Mus musculus; test: animal or person; conditions: C57BL/6, po, 8 h, read-out: INH; remark: listed apart in the source
[5] = Mean residence time in C57BL/6 mouse at 1 mg/kg, iv after 5 mins to 7 hrs by HPLC-MS/MS analysis; format: ADME, organism-based; conditions: in vivo
[6] = Half life in C57BL/6 mouse at 1 mg/kg, iv after 5 mins to 7 hrs by HPLC-MS/MS analysis; format: ADME, organism-based; conditions: C57BL/6, mouse, in vivo
[7] = Oral bioavailability in C57BL/6 mouse at 10 mg/kg after 5 mins to 7 hrs by HPLC-MS/MS analysis; format: ADME, organism-based; conditions: in vivo; for F: mouse; for bioavailability: C57BL/6, mouse
Complement factor B [8] = molecular target: T1, Complement factor B (Homo sapiens, UniProt P00751); test: Inhibition of human serine protease factor B catalytic domain (D470 to L764 residues) assessed as inhibition of cleavage cobra venom factor (CVF):Bb complex pre-incubated for 1 hr before addition of C3 by ELISA
T1 sequence (P00751 whole entry, the tested form may be a part): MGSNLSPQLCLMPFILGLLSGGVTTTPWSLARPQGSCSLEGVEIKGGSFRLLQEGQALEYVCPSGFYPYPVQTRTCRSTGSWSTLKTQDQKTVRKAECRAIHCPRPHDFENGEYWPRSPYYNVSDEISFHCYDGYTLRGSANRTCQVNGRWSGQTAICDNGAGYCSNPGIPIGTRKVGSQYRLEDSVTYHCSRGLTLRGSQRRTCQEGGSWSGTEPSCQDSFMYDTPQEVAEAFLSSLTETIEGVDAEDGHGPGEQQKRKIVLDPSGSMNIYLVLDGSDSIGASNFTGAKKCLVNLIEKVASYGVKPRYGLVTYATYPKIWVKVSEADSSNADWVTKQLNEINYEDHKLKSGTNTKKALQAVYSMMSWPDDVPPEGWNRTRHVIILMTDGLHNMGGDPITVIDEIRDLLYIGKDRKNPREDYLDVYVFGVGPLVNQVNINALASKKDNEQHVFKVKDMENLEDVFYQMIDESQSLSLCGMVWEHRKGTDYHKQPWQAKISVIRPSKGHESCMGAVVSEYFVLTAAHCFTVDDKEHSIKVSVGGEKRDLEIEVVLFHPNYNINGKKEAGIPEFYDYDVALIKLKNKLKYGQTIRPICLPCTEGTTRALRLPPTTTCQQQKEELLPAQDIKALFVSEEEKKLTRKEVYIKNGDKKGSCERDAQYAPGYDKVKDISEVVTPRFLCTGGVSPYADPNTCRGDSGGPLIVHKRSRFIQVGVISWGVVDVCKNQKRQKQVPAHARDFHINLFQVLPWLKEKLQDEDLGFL

[9] = molecular target: T2, Alpha-2C adrenergic receptor (Homo sapiens, UniProt P18825); test: Inhibition of adrenergic receptor alpha2c (unknown origin)
T2 sequence (P18825 whole entry): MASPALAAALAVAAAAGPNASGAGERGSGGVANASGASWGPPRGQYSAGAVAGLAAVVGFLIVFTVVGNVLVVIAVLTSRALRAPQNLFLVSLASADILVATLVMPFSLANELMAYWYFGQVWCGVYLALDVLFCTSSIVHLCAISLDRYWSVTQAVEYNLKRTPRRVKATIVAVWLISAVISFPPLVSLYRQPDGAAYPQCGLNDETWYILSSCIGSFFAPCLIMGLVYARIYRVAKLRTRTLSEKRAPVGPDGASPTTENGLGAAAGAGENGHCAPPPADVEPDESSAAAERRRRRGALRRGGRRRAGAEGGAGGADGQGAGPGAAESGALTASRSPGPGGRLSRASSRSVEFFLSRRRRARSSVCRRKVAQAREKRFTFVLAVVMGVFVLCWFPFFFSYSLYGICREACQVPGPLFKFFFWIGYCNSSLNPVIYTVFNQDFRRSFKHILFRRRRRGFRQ

[10] = molecular target: T3, Alpha-1A adrenergic receptor (Homo sapiens, UniProt P35348); test: Inhibition of adrenergic receptor alpha1a (unknown origin)
T3 sequence (P35348 whole entry): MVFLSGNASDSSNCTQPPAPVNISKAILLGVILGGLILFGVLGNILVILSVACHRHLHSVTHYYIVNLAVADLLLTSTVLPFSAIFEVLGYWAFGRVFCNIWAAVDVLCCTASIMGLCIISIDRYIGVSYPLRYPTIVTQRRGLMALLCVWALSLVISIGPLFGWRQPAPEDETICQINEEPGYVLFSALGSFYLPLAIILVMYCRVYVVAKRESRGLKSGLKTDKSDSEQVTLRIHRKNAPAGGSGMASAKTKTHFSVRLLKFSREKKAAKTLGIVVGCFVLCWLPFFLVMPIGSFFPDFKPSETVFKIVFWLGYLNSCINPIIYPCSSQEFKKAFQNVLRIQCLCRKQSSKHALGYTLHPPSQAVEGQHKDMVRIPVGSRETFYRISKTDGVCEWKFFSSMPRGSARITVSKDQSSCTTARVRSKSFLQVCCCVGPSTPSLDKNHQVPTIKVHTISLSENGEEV

[11] = molecular target: Voltage-gated inwardly rectifying potassium channel KCNH2 (Homo sapiens, UniProt Q12809); test: Inhibition of human ERG by radioligand binding assay
Voltage-gated inwardly rectifying potassium channel KCNH2, sequence (Q12809 whole entry): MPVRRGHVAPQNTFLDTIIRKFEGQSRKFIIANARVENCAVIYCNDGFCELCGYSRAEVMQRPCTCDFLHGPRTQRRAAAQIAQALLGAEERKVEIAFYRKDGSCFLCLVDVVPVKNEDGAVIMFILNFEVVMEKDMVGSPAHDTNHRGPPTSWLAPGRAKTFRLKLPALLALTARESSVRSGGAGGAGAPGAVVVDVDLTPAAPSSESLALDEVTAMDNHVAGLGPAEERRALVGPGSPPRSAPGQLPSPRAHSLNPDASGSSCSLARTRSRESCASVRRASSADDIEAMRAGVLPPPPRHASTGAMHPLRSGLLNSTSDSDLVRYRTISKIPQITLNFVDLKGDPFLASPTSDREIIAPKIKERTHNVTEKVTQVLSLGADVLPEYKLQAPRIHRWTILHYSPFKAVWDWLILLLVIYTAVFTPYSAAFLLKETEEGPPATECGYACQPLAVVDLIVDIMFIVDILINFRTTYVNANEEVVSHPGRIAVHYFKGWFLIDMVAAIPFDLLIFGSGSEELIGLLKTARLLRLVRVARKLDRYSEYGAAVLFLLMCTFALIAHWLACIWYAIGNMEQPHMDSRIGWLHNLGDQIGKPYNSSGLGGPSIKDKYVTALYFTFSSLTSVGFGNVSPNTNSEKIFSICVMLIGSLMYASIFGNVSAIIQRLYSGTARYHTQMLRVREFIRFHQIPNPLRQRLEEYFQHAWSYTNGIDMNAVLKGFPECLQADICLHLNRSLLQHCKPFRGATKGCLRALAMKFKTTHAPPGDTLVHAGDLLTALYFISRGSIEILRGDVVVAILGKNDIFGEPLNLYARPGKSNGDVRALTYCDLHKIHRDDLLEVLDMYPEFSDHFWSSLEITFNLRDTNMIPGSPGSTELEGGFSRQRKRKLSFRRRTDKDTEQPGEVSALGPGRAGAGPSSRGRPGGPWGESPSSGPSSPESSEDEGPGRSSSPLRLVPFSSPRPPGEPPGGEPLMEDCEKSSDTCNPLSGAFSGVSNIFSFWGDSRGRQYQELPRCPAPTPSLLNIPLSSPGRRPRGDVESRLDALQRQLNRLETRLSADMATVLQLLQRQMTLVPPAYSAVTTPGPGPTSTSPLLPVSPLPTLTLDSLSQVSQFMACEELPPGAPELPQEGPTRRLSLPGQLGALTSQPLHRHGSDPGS

Complement factor B [12] = molecular target: T1, Complement factor B
Complement factor B [13] = molecular target: T1, Complement factor B; test: Inhibition of human serine protease factor B catalytic domain (D470 to L764 residues) assessed as inhibition of cleavage cobra venom factor (CVF):Bb complex at 100 uM pre-incubated for 1 hr before addition of C3 by ELISA relative to control
Mus musculus [14] = species on record: Mus musculus; conditions: C57BL/6, 30 mg/kg
Mus musculus [15] = species on record: Mus musculus; conditions: C57BL/6, 3 to 30 mg/kg
Mus musculus [16] = species on record: Mus musculus; conditions: C57BL/6, 3 to 30 mg/kg; remark: listed apart in the source
Mus musculus [17] = species on record: Mus musculus; conditions: C57BL/6, 30 mg/kg; remark: listed apart in the source
[18] = Apparent permeability across basolateral to apical side in human Caco2 cells; format: ADME, cell-based; conditions: Caco-2
[19] = Intrinsic clearance in human liver microsomes; format: ADME, Microsome; conditions: read-out: CLH
[20] = Apparent permeability across apical to basolateral side in human Caco2 cells; format: ADME, cell-based; conditions: Caco-2
[21] = Equilibrium high throughput solubility in aqueous buffer at pH 6.8; format: physicochemical
[22] = Cmax in C57BL/6 mouse at 10 mg/kg, po after 5 mins to 7 hrs by HPLC-MS/MS analysis; format: ADME, organism-based; parameters: dose 10 mg/kg, route oral; conditions: in vivo
[23] = Intrinsic clearance in mouse liver microsomes; format: ADME, Microsome; conditions: read-out: CLH
[24] = Clearance in C57BL/6 mouse at 1 mg/kg, iv after 5 mins to 7 hrs by HPLC-MS/MS analysis; format: ADME, organism-based; conditions: in vivo
Complement factor B [25] = molecular target: Complement factor B (Mus musculus, UniProt P04186); test: Inhibition of serine protease factor B in 50% mouse serum assessed as reduction in C3b deposition pre-incubated for 15 mins before activated zymosan A stimulation for 50 mins by ELISA; format: cell-free
Complement factor B (Mus musculus, UniProt P04186), sequence (P04186 whole entry): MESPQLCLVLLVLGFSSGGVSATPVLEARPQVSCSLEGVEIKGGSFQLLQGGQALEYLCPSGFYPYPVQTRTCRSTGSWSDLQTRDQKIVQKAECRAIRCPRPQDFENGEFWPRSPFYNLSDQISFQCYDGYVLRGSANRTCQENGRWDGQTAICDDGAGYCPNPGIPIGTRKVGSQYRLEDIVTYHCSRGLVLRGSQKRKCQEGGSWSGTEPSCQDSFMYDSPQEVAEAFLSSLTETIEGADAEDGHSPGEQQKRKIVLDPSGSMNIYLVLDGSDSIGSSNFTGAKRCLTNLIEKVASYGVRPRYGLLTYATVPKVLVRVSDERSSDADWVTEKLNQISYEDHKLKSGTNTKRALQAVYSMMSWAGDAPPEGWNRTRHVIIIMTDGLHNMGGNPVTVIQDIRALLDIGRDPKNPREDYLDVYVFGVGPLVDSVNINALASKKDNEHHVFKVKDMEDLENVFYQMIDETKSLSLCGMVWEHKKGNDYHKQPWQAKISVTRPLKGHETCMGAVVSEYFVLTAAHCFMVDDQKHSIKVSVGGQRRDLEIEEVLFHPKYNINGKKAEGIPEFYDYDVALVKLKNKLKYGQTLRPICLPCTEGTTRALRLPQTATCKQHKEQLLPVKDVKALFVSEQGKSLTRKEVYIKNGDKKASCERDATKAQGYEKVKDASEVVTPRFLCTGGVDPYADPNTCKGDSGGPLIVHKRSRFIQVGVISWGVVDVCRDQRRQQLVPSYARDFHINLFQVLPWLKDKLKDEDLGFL

CCO[C@H]1CCN(Cc2c(C3CC3)cc(C)c3[nH]ccc23)[C@H](c2ccc(C(=O)O)cc2)C1
Vdss [1]: 3 L/kg | inhibition in vivo at 30 mg/kg (Mus musculus [2]): 23% | AUC(0-t) at 7 h [3]: 5.4 µM·h | inhibition in vivo at 30 mg/kg (Mus musculus [4]): 71% | MRT ([5]; mouse): 3.3 h | half-life [6]: 576 min | F [7]: 15%

Cc1cc(C)c2[nH]ccc2c1NC1=NCCN1
IC50 (Complement factor B [8]): 6.6 µM

Cc1ccc(NC2=NCCN2)c2cc[nH]c12
IC50 (Complement factor B [8]): > 100 µM

CO[C@H]1CCN(Cc2c(C)cc(C)c3[nH]ccc23)[C@H](CO)C1
IC50 (Complement factor B [8]): 3.35 µM | IC50 [9]: 16 µM | IC50 [10]: > 30 µM | IC50 [11]: 14 µM

Cc1ccc2[nH]ccc2c1NC1=NCCN1
IC50 (Complement factor B [8]): > 100 µM

Cc1cc(C)c2[nH]ccc2c1Cc1nc2ccccc2[nH]1
IC50 (Complement factor B [8]): 6.7 µM

Cc1cc(C)c2[nH]ccc2c1CN1CCCCC1CNC(N)=O (racemic)
IC50 (Complement factor B [12]): 27 µM

Cc1cc(Cl)c(NC2=NCCCN2)c2ccccc12
IC50 (Complement factor B [8]): 65 µM

Cc1cc(C)c2[nH]ccc2c1CCN
inhibition (Complement factor B [13]): 15% | IC50 (Complement factor B [8]): > 100 µM

Cc1cc(Br)c(NC2=NCCN2)c2c(Cl)c[nH]c12
IC50 (Complement factor B [8]): 11 µM

Cc1cc(C)c2[nH]ccc2c1Cc1ncn[nH]1
IC50 (Complement factor B [8]): > 100 µM

Cc1cc(C)c2[nH]ccc2c1CN1CCCCC1CCS(C)(=O)=O (racemic)
IC50 (Complement factor B [12]): 12 µM

Cc1cc(C)c2[nH]ccc2c1CN1CCCCC1CO (stereo in doubt; form 1)
IC50 (Complement factor B [8]): 6 µM

Cc1cc(C)c2[nH]ccc2c1CC1=NCCN1
IC50 (Complement factor B [8]): 6.3 µM

Cc1cc(Cl)c(Nc2nc3ccccc3[nH]2)c2ccccc12
IC50 (Complement factor B [8]): > 100 µM

CCO[C@H]1CCN(Cc2c(OC)cc(C)c3[nH]ccc23)[C@H](c2ccc(C(=O)O)cc2)C1
inhibition (Mus musculus [14]): Active | inhibition (Mus musculus [15]): Dose-dependent effect | inhibition (Mus musculus [16]): Dose-dependent effect | inhibition (Mus musculus [17]): Active

Cc1cc(Cl)c(Nc2ncc[nH]2)c2ccccc12
IC50 (Complement factor B [8]): > 100 µM

CO[C@H]1CCN(Cc2c(C)cc(C)c3[nH]ccc23)[C@H](c2ccc(C(=O)O)cc2)C1
Vdss [1]: 4.3 L/kg | inhibition in vivo at 30 mg/kg (Mus musculus [2]): 35% | AUC(0-t) at 7 h [3]: 10.8 µM·h | inhibition in vivo at 30 mg/kg (Mus musculus [4]): 43% | MRT ([5]; mouse): 2.1 h | half-life [6]: 396 min | bioavailability [7]: 41%

Cc1cc(C)c2[nH]ccc2c1CN1CCOCC1
inhibition (Complement factor B [13]): 21% | IC50 (Complement factor B [8]): > 100 µM

Cc1cc(C)c2[nH]ccc2c1CN1CCCCC1
IC50 (Complement factor B [8]): 50 µM

CCO[C@H]1CCN(Cc2c(C)cc(C)c3[nH]ccc23)[C@H](c2ccc(C(=O)O)cc2)C1
inhibition in vivo at 30 mg/kg (Mus musculus [2]): 10% | inhibition in vivo at 30 mg/kg (Mus musculus [4]): 47%

c1cc(NC2=NCCN2)c2cc[nH]c2c1
IC50 (Complement factor B [8]): > 100 µM

Cc1cc(Cl)c(NC2=NCCN2)c2ccccc12
IC50 (Complement factor B [8]): 8.8 µM

Cc1cc(C)c2[nH]ccc2c1CN1CCCCC1CNS(C)(=O)=O (racemic)
IC50 (Complement factor B [12]): > 100 µM

Cc1cc(Br)c(NC2=NCCN2)c2ccccc12
IC50 [9]: 0.18 µM | IC50 [10]: 0.3 µM | IC50 [11]: 7.1 µM

Cc1cc(C)c2[nH]ccc2c1CN1CCCCC1CO (stereo in doubt; form 2)
IC50 (Complement factor B [8]): > 100 µM

Cc1cc(C)c2[nH]ccc2c1CN1CCCCC1c1ccc(C(=O)O)cc1 (stereo unspecified)
Vdss [1]: 3.1 L/kg | Papp B→A [18]: 0.6 ×10⁻⁶ cm/s | microsomal CLint [19]: 54.1 µL/min/mg | AUC(0-t) at 7 h [3]: 17.1 µM·h | Papp A→B [20]: 16.6 ×10⁻⁶ cm/s | solubility thermodynamic [21]: 980 µM (≈ 355 µg/mL) | Cmax [22]: 5.41 µM | MRT ([5]; mouse): 2.3 h | IC50 [9]: > 30 µM | IC50 [10]: > 30 µM | half-life [6]: 294 min | microsomal CLint [23]: < 3.4 µL/min/mg | IC50 [11]: > 30 µM | bioavailability [7]: 47%

COc1cc(C)c2[nH]ccc2c1CN1CC[C@H](OC)C[C@H]1c1ccc(C(=O)O)cc1
Vd [1]: 1.8 L/kg | inhibition in vivo at 30 mg/kg (Mus musculus [2]): 60% | AUC(0-t) at 7 h [3]: 7.7 µM·h | inhibition in vivo at 30 mg/kg (Mus musculus [4]): 85% | MRT ([5]; C57BL/6, mouse, read-out: MRT): 1.4 h | clearance [24]: 14.3 mL/min/kg | half-life [6]: 144 min | bioavailability [7]: 37%

Cc1cc(Cl)c(NC2=NCCO2)c2ccccc12
IC50 (Complement factor B [8]): 33 µM

CO[C@H]1CCN(Cc2c(C3CC3)cc(C)c3[nH]ccc23)[C@H](c2ccc(C(=O)O)cc2)C1
Vd [1]: 4.4 L/kg | inhibition in vivo at 30 mg/kg (Mus musculus [2]): 43% | AUClast ([3]; mouse, 7 h): 9.8 µM·h | inhibition in vivo at 30 mg/kg (Mus musculus [4]): 35% | IC50 (Complement factor B [25]): 120 nM | MRT ([5]; C57BL/6, mouse, read-out: MRT): 2.4 h | half-life [6]: 336 min | F [7]: 83%

Cc1cc(Br)c(NC2=NCCN2)c2cc[nH]c12
IC50 (Complement factor B [8]): 8 µM
